In US20060263802A1 (priority 2003, published 2006):

Tests used:
Assay type in all cases: binding
[1] = system: human monoclonal antibody CRJB
[2] = system: human monoclonal antibody CRJB; remark: listed apart in the source
[3] = system: human monoclonal antibody CRJA
[4] = system: human monoclonal antibody CR57
[5] = system: human monoclonal antibody CR57; remark: listed apart in the source
[6] = system: human monoclonal antibody CRJA; remark: listed apart in the source

Sequence	Binding of CRJB to linear peptide (PEPSCAN-ELISA signal) [1]	Binding of CRJB (10 μg/ml) to looped/cyclic peptide (PEPSCAN-ELISA signal) [2]	Binding of CRJA (10 μg/ml) to looped/cyclic peptide (PEPSCAN-ELISA signal) [3]	Binding of CR57 (10 μg/ml) to looped/cyclic peptide (PEPSCAN-ELISA signal) [4]	Binding of CR57 to linear peptide (PEPSCAN-ELISA signal) [5]	Binding of CRJA to linear peptide (PEPSCAN-ELISA signal) [6]	Binding of CRJB (10 μg/ml) to looped/cyclic peptide (PEPSCAN-ELISA) [2]	Binding of CRJA (10 μg/ml) to looped/cyclic peptide (PEPSCAN-ELISA) [3]	Binding of CR57 (10 μg/ml) to looped/cyclic peptide (PEPSCAN-ELISA) [4]	Binding of human monoclonal antibody CRJB to linear peptide (PEPSCAN-ELISA signal) [1]	Binding of CRJB to looped/cyclic peptide (PEPSCAN-ELISA signal) [2]	Binding of CRJA to looped/cyclic peptide (PEPSCAN-ELISA signal) [3]	Binding of CR57 to looped/cyclic peptide (PEPSCAN-ELISA signal) [4]	Binding of human monoclonal antibody CR57 to linear peptide (PEPSCAN-ELISA signal) [5]	Binding of human monoclonal antibody CRJA to linear peptide (PEPSCAN-ELISA signal) [6]
SRVFPSGKCSGVAVS	125	89	92	112	100	107									
SSLLQQHMELLESSV	128				90	106	76	90	98						
SSTYCSTNHDYTIWM	107	66	90	96	76	71									
SSVIPLVHPLADPST	104				73	60	80	45	120						
STNHDYTIWMPENPR	112	74	51	72	60	77									
STVFKDGDEAEDFVE										120	93	100	106	104	93
STYCSTNHDYTIWMP	99	82	90	90	86	79									
SVADLDPYDRSLHSR	106	71	83	58	49	92									
SVIPLVHPLADPSTV	137				72	64	106	75	71						
SVRTWNEILPSKGCL	138				106	123	147	165	151						
SVSFRRLSHLRKLVP	123				64	101	84	98	94						
SYMELKVGYILAIKM	123	92	96	106	65	143									
TCGFVDERGLYKSLK	120				47	104	79	100	84						
TCTGVVTEAENYTNF	112	93	112	107	92	96									
TEAENYTNFVGYVTT	84	60	76	75	68	86									
TFKRKHFRPTPDACR	111	99	105	112	96	97									
TGVVTEAENYTNFVG	110	69	96	92	85	86									
TIFNKTLMEADAHYK	123				107	100	91	96	114						
TILDKLGPWSPIDIH	96	60	86	85	76	84									
TIWMPENPRLGMSCD	106	82	102	97	69	93									
TKESLVIISPSVADL	112	80	88	99	86	102									
TKSVSFRRLSHLRKL	125				83	103	94	91	88						
TLMEADAHYKSVRTW	114				100	111	87	89	89						
TNFVGYVTTTFKRKH	125	99	96	79	71	96									
TNHDYTIWMPENPRL	129	58	72	40	69	91									
TNLSGFSYMELKVGY	106	107	85	39	43	102									
TNSRGKRASKGSETC	108	104	104	107	68	89									
TPDACRAAYNWKMAG	132	90	111	125	92	132									
TSNETKWCPPDQLVN	111				97	88	57	96	134						
TTFKRKHFRPTPDAC	99	78	89	86	74	111									
